The values below are quoted from earlier work in US7186882B2, “Transgenic mouse over-expressing calreticulin (CRT) in vascular smooth muscle cells” (priority 2003, dated 2007).

Where a SMILES comes first, the peptide text is derived from it. Bridges are numbered along the chain shown (N, C = ends).

The subject of one series is MMP-2/MMP-9. The conditions noted are these: MMP-2/MMP-9 inhibitor, values given as illustrative.
The test system of the next series is CRT. Particulars: siRNA to nucleotides 1917–1937 of SEQ ID NO. 1; Troussard et al., 2003.
For series [1], the system named is intimal hyperplasia after arterial injury. Particulars: adult rats, exogenously added CRT; Dai et al., 1997.
The next series concerns endothelial cells. The conditions noted are these: added to the endothelial culture media; Pike et al., 1999.

The IC50 is the midpoint of a concentration-inhibition curve. Consider `CC(C)C[C@@H]1NC(=O)[C@H]([C@@H](C)O)NC(=O)[C@H](Cc2ccccc2)NC(=O)CNC(=O)[C@H](Cc2c[nH]c3ccccc23)NC(=O)[C@H](Cc2cnc[nH]2)NC(=O)[C@H]([C@@H](C)O)NC(=O)[C@H]([C@@H](C)O)NC(=O)[C@@H](N)CSSC[C@@H](C(=O)O)NC1=O` [MMP-2/MMP-9 inhibitor III] (H-CTTHWGFTLC-OH; disulfide 1-10), for which, in the series on MMP-2/MMP-9, the IC50 was 10000 nM.

As to “siRNA: small interference RNA to CRT mRNA, sense 5′-GCUGAUCGUGCGGCCGGACAA dTT 3′, anti-sense 5′-UUGUCCGGCCGCACGAUCAGC dTT 3′ (sense GCUGAUCGUGCGGCCGGACAATT; antisense UUGUCCGGCCGCACGAUCAGCTT; chemistry not fully specified)”, in the series on CRT, the “expression of CRT” value was “significantly diminish the expression of CRT”.

As for `O=C(NO)[C@@H](Cc1ccccc1)NS(=O)(=O)c1ccc(-c2ccccc2)cc1` [MMP-2/MMP-9 inhibitor II], in the series on MMP-2/MMP-9, the IC50 was 17 to 30 nM.

`O=C(O)[C@@H](Cc1ccccc1)NS(=O)(=O)c1ccc(-c2ccccc2)cc1` [MMP-2/MMP-9 inhibitor I, (2R)-2-[(4-Biphenylylsulfonyl)amino]-3-phenylpropionic Acid]: the IC50 in the series with MMP-2/MMP-9 was 240 to 350 nM.

B1: CRT: calreticulin, 46 kDa ER protein, exogenously added to vascular cells or vessel lumen (protein)
chain: MLLPVPLLLGLLGLAAAEPVVYFKEQFLDGDGWTERWIESKHKSDFGKFVLSSGKFYGDQEKDKGLQTSQDARFYALSARFEPFSNKGQPLVVQFTVKHEQNIDCGGGYVKLFPAGLDQKDMHGDSEYNIMFGPDICGPGTKKVHVIFNYKGKNVLINKDIRCKDDEFTHLYTLIVRPDNTYEVKIDNSQVESGSLEDDWDFLPPKKIKDPDASKPEDWDERAKIDDPTDSKPEDWDKPEHIPDPDAKKPEDWDEEMDGEWEPPVIQNPEYKGEWKPRQIDNPDYKGTWIHPEIDNPEYSPDANIYAYDSFAVLGLDLWQVKSGTIFDNFLITNDEAYAEEFGNETWGVTKTAEKQMKDKQDEEQRLKEEEEEKKRKEEEEAEEDEEDKDDKEDEDEDEEDKDEEEEEAAAGQAKDEL
modifications: CRT peptide sequence from CRT cDNA
notes: calreticulin, 46 kDa ER protein, exogenously added to vascular cells or vessel lumen
As for B1, in series [1], the “intimal hyperplasia (restenosis) after arterial injury” value is on record as “reducing intimal hyperplasia”. In addition, in the series on endothelial cells, the endothelial cell proliferation entry is on record as “selectively inhibits endothelial cell proliferation”.
